# Test system: biofilm
# Experiment: biofilm removal by ionic liquids (training set for QSFR model)
# Format: cell-based
# Settings: where two values were available (MMPZ MeSO4, EMIM Tosylate) the value obtained at the higher pH
# Text: The process of QSFR model building involves assembling a dataset with experimental results and molecular structures, descriptor calculation and contingency analysis followed by model generation and validations. Ionic liquids with biofilm removal data served as a data set for model generation. The details of the dataset are shown in Table 1 (ID and biofilm removal data for ionic liquids selected for model generation (training set).
molecule,measurement,value
"1,2,3-trimethylimidazolium methyl sulfate [TMIM MeSO4]",% removal of biofilm,51.8%
"CCOP(=O)([O-])OCC.CCn1cc[n+](C)c1 [EMIM diethyl PO4, EMIM diethyl phosphate]",% removal of biofilm,52.7%
Tris(2-hydroxyethyl)methylammonium methylsulphate [MTEOA MeSO4],% removal of biofilm,52.8%
"CCCCCCCCOS(=O)(=O)[O-].CCCCn1cc[n+](C)c1 [BMIM Octyl SO4, BMIM octyl sulfate]",% removal of biofilm,58.6%
"CCCCn1cc[n+](C)c1.COS(=O)(=O)[O-] [BMIM MeSO4, BMIM methyl sulfate]",% removal of biofilm,53.9%
"C=CCn1cc[n+](C)c1.[Cl-] [AMIM Cl, 1-allyl-3-methylimidazolium (AMIM) chloride]",% removal of biofilm,44.8%
"CCn1cc[n+](C)c1.[Br-] [EMIM Br, EMIM bromide (Br)]",% removal of biofilm,48.6%
"COS(=O)(=O)[O-].Cc1cn(C)[n+](C)c1 [MMMPz MeSO4, 1,2,4-trimethylpyrazolium (MMMPZ) methyl sulfate]",% removal of biofilm,57.8%
"CCn1cc[n+](C)c1.[Cl-] [EMIM Cl, 1-ethyl-3-methylimidazolium (EMIM) chloride (Cl)]",% removal of biofilm,44.3%
"CCCCCCCCCCn1cc[n+](C)c1.[Cl-] [DMIM CL, 1-decyl-3-methylimidazolium (DMIM) chloride]",% removal of biofilm,57.3%
"CC(=O)[O-].CCCCn1cc[n+](C)c1 [BMIMOAc, BMIM acetate (OAc)]",% removal of biofilm,55.9%
"CCCCn1cc[n+](C)c1.[Cl-] [BMIM Cl, 1-butyl-3-methylimidazolium (BMIM) chloride (Cl)]",% removal of biofilm,43.8%
"CCn1cc[n+](C)c1.Cc1ccc(S(=O)(=O)[O-])cc1 [EMIM Tosylate, EMIM tosylate]",% removal of biofilm,59.5%
1-ethyl-3-methylimidazolium ethylsulphate [EMIM Ethyl SO4],% removal of biofilm,48.1%
"CCCCn1cc[n+](C)c1.[Br-] [BMIM Br, BMIM bromide (Br)]",% removal of biofilm,48.0%

# Source: US20150335547A1, “ORAL CARE COMPOSITION CONTAINING IONIC LIQUIDS” (priority 2012, published 2015)
